One test concerns the target T1, PKCδ (Mus musculus, UniProt P28867).
T1 construct: endogenous in cells; host or cells: mouse bone-marrow-derived dendritic cells (BMDCs) from WT mice
Description: CARD9 immunoprecipitation and western blot for pS104-CARD9 in BMDCs stimulated with HKCA. The test is classed as cell-based. Conditions: 10 uM, added 1 h before stimulation; BMDCs from WT mice stimulated with HKCA (MOI 1:10). The method, then: FIGS. 3A-3H provide graphs and pictures showing that CARD9 R101 functions as a signaling switch activated by S104 phosphorylation. FIG. 3A, BMDCs expressing Cas9 were transduced with guides for the corresponding genes on day 2 and selected with puromycin. On day 9 cells were stimulated with 100 ug/ml WGP O/N and IL-6 levels in supernatant were measured with ELISA. FIG. 3B, BMDCs expressing Cas9 were transduced with guides for the corresponding genes on day 2 and selected with puromycin. On day 9 cells were stimulated with HKCA (MOI 1:10), HKTR (1:10) or LPS (10 ng/ml) for 30 min. p65 nuclear translocation was measured using fluorescence imaging. The bars in the graph are shown in groups of 6 (from left to right, EGFP, EGFP, PAK2, PAK2, PKCd, PKCd) for each different condition (i.e., untreated, HKCA, HKTR, LPS). FIG. 3C, CARD9 FL, CARD9 R101C or CARD9 S104N were overexpressed in HEK 293T cells. […] Samples were analyzed by WB with the indicated antibodies. […] Samples were analyzed by WB with the indicated antibodies. FIG. 3F, Normalized fluorescence polarization representing filament formation between different CARD9 2-152 variants and Bcl10, average of quadruplicates. […] FIG. 3H, Expression of CARD9 in the lysates from panel g determined by western blot (WB) with the indicated antibodies. […]

The subject of test [1] is phosphorylated S104 (pS104) of CARD9, peptides pS104, pS104/R101C, S104. The test can be described thus: ELISA of hybridoma clones against CARD9 peptides (antibody specificity). It counts as binding. Conditions: pS104 in the context of either R101 or C101. From the text: FIGS. 9A-9J provide schematics, pictures, a table, graphs showing that CARD9 activation through S104 phosphorylation is impaired by the R101C variant implicated in fungal disease. FIG. 9A, schematic representation of CRISPR KI into CARD9 allele to obtain endogenous CARD9 R101C mutation. Figure discloses SEQ ID NOS 69-71, respectively, in order of appearance. FIG. 9B, representative sequencing result highlighting the presence of mutated base pair (arrow). Figure discloses SEQ ID NOS 72-74, respectively, in order of appearance. FIG. 9C, WB from BMDCs isolated from WT or CARD9 R101C mutant mice. FIG. 9D, WB from splenic CD11c positive cells isolated from WT or CARD9 R101C mutant mice. FIG. 9E, table summarizing hybridoma screening results for binding affinity of different phospho-S104 specific antibodies. ELISA results are shown as values of absorbance at 490 nm, representing antibody reactivity towards either pS104, or pS104/R101C, or S104 peptides. Antibody used in the study is row 6 (i.e., 4F9.H5). FIG. 9F, IL-6 concentration in supernatants from BMDCs from WT, CARD9−/− or CARD9R101C mutant treated with indicated concentrations of WGP, HKCA, HKTR or LPS (10 ng/ml) for 24h. (n=3 mice per condition). […]

T1 sequence (P28867 whole entry): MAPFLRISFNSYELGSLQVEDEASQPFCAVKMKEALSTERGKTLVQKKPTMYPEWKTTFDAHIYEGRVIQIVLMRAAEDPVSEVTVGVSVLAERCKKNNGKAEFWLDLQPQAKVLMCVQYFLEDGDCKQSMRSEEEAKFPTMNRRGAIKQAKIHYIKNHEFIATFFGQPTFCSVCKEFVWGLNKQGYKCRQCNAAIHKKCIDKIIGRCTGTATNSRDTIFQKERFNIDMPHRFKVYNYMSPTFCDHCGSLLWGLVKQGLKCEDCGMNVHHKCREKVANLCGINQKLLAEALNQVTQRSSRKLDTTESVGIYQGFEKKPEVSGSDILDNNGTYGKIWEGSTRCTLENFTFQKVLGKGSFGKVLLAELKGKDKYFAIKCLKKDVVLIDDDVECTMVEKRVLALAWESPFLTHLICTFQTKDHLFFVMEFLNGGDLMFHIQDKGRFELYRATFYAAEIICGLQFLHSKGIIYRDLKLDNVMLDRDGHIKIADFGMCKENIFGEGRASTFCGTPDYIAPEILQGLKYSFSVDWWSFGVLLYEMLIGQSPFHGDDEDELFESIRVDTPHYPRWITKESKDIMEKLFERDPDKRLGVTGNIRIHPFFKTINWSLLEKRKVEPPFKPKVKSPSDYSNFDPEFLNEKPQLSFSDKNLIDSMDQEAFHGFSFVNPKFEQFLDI

With `CN1CCN(c2nc(C3=C(c4c[nH]c5ccccc45)C(=O)NC3=O)c3ccccc3n2)CC1` [Sotrastaurin], the “CARD9 S104 phosphorylation” value on PKCδ is listed as “inhibition of CARD9 S104 phosphorylation”.

B1: phospho-specific CARD9 S104 antibody: mouse monoclonal IgG1 antibody to phosphorylated S104 of CARD9; clone 4F9.H5 used in the study; VH/VL in Table 1 (antibody, V domains shown)
VH: EVQLQQSGPELVKPGASMKMSCKASGYSFTGQTMHWVKQTHGKNLEWIGLINPYNGGTKYNQIFTGKATLTVDKSSSSAYMELLSLTSEDSAVYFCAIWDYVLDYWGQGTSVTVSSAKTTPPSVYPLAPGSAAQTNSMVTLGCLVK
VL: DVVMTQTPLSLPVSLGDQASISCRSSQSLLHSNGKTYLHWYLQKPGQSPKLLIYKVSNRFSGVPDRFSGSGSGTDFTLKISRVEAEDLGVYFCSQSTHIPPTFGGGTKLEIKRADAAPTVSIFPPSSEQLTSGGASVVCF
In the case of B1, the “recognition of S104 phosphorylation (antibody specificity by ELISA against different peptides)” value in test [1] is recorded as “recognizes S104 phosphorylation independently of R101”.

For the origin of these results see patent US20260158139A1, “CARD9 VARIANT POLYPEPTIDE AND ANTIBODIES DIRECTED THERETO” (The Broad Institute, Inc., priority 2023, published 2026).
